Source: ChEMBL document CHEMBL4828768, “Talaromynoids A-I, Highly Oxygenated Meroterpenoids from the Marine-Derived Fungus Talaromyces purpureogenus SCSIO 41517 and Their Lipid Accumulation Inhibitory Activities” (J Nat Prod, 2021)
The source made the active and inactive calls. No cut-off for these calls is given here.

Key:
Details in all cases: dose 6.7 µg/ml
[1] = biological target: T1, M-phase inducer phosphatase 2 (Homo sapiens) (UniProt P30305); assay: Inhibition of human recombinant CDC25B expressed in Escherichia coli assessed as inhibition of phosphatase activity by measuring p-nitrophenyl phosphate at 6.7 microg/ml measured after 60 mins
T1 sequence (whole entry): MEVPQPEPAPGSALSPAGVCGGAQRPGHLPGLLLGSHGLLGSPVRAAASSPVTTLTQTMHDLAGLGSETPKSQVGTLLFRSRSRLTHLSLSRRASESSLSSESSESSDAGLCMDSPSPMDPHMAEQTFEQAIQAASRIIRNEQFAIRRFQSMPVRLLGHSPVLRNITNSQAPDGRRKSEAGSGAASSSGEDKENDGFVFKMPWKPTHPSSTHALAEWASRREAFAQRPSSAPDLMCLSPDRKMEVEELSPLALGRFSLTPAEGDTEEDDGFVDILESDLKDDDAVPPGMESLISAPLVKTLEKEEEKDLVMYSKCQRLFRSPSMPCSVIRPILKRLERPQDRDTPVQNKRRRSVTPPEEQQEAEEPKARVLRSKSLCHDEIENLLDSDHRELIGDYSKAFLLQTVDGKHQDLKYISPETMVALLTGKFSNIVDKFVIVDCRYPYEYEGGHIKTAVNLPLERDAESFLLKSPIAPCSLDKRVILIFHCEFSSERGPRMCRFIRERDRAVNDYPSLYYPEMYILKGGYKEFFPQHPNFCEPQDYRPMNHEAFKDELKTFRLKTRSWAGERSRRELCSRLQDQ

[2] = biological target: T2, Tyrosine-protein phosphatase non-receptor type 2 (Homo sapiens) (UniProt P17706); assay: Inhibition of human recombinant TCPTP expressed in Escherichia coli assessed as inhibition of phosphatase activity by measuring p-nitrophenyl phosphate at 6.7 microg/ml measured after 60 mins
T2 sequence (whole entry): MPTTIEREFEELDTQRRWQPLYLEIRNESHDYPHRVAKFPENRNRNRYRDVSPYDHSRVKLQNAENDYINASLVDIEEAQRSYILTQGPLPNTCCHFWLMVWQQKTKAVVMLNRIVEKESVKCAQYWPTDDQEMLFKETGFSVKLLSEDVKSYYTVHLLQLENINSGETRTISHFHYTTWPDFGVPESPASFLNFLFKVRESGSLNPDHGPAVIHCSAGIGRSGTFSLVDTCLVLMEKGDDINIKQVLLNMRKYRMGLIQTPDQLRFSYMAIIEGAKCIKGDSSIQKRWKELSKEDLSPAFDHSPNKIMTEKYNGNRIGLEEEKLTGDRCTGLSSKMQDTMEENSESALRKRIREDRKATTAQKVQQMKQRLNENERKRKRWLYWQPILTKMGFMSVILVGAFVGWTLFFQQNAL

[3] = biological target: T3, Tyrosine-protein phosphatase non-receptor type 9 (Homo sapiens) (UniProt P43378); assay: Inhibition of human recombinant MEG2 expressed in Escherichia coli assessed as inhibition of phosphatase activity by measuring p-nitrophenyl phosphate at 6.7 microg/ml measured after 60 mins
T3 sequence (whole entry): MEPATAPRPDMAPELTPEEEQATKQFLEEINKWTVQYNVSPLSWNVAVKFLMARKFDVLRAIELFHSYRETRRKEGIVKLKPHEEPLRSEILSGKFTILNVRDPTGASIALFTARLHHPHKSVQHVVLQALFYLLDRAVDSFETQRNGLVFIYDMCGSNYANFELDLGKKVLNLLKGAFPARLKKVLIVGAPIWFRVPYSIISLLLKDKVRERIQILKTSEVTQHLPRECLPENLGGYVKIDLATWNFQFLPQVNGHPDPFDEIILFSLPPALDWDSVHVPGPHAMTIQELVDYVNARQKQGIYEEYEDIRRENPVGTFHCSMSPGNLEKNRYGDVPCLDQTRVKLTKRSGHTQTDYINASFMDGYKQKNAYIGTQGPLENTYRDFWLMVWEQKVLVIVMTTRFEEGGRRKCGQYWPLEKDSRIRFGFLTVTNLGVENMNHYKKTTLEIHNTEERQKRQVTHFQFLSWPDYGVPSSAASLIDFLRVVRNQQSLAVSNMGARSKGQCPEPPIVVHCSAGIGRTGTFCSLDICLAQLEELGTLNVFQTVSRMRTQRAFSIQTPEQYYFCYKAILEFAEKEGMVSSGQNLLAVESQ

[4] = biological target: T4, Tyrosine-protein phosphatase non-receptor type 11 (Homo sapiens) (UniProt Q06124); assay: Inhibition of human recombinant SHP2 expressed in Escherichia coli assessed as inhibition of phosphatase activity by measuring p-nitrophenyl phosphate at 6.7 microg/ml measured after 60 mins
T4 sequence (whole entry): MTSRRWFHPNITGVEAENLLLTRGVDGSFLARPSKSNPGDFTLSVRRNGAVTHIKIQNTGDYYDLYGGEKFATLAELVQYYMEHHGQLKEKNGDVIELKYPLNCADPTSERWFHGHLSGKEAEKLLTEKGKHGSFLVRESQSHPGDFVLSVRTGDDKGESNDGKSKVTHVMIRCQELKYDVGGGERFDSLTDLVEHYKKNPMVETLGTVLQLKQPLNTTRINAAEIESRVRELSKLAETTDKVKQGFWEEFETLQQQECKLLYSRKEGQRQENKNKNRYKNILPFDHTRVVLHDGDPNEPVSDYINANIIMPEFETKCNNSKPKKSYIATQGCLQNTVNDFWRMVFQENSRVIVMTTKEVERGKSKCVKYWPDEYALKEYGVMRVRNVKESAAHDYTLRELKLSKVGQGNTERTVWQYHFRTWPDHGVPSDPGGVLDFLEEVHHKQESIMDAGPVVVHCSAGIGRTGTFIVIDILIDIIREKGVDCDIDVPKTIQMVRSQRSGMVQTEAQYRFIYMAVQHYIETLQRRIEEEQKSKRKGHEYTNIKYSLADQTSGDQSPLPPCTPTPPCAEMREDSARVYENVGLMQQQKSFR

COC(=O)CC1=C(C)[C@@H]2C[C@@]3(C)C(=O)O[C@H]4O[C@@H](C)[C@@]5(O)O[C@@H]([C@@H]6O[C@]16C(C)(C)O)[C@]2(C)[C@@]5(C(=O)OC)[C@]43O
inhibition [1]: < 60% | inhibition [2]: < 60% | inhibition [3]: < 60% | inhibition [4]: < 60%

COC(=O)[C@]12[C@@H]3[C@H]4OC(=O)[C@]3(C)C[C@H]3C(C)=C5CC(=O)OC(C)(C)[C@@]56O[C@H]6[C@H](O[C@]1(O)[C@H](C)O4)[C@@]32C
inhibition [1]: < 60% | inhibition [2]: < 60% | inhibition [3]: < 60% | inhibition [4]: < 60%

COC(=O)[C@@]12[C@@]3(C)[C@@H]4C=C5C(=CC(=O)OC5(C)C)[C@@](C)(O)[C@@H]3C[C@@]3(C)C(=O)O[C@@H](O[C@@H](C)[C@@]1(O)O4)[C@@]23O
inhibition [1]: Active | inhibition [2]: < 60% | inhibition [3]: < 60% | inhibition [4]: < 60%

COC(=O)CC1=C(C)[C@H]2C[C@]3(C)C(=O)O[C@@H]4O[C@H](C)[C@]5(O)O[C@@H]([C@H]6O[C@@]16C(C)(C)O)[C@@]2(C)[C@@]51C(=O)O[C@@]413
inhibition [1]: < 60% | inhibition [2]: < 60% | inhibition [3]: < 60% | inhibition [4]: < 60%

CC1=C2CC(=O)OC(C)(C)C2=CC[C@@]2(C)[C@H]1C[C@@](C)(C(=O)O)[C@]13COC(=O)[C@@]12C(=O)[C@H](C)O3
inhibition [1]: < 60% | inhibition [2]: < 60% | inhibition [3]: < 60% | inhibition [4]: < 60%

COC(=O)[C@]12C3=C(C)O[C@@H]4OC(=O)[C@](C)(C[C@H]5C(C)=C6CC(=O)O[C@@]6(C(C)(C)O)[C@H](O3)[C@H](O)[C@@]51C)[C@@H]42
inhibition [1]: < 60% | inhibition [2]: < 60% | inhibition [3]: < 60% | inhibition [4]: < 60%

COC(=O)[C@]12[C@@H]3[C@@H](O)O[C@@H](C)[C@@]14OC(=O)[C@]3(C)C[C@H]1C(C)=C3CC(=O)OC(C)(C)[C@@]35O[C@H]5[C@H](O4)[C@@]12C
inhibition [1]: < 60% | inhibition [2]: < 60% | inhibition [3]: < 60% | inhibition [4]: < 60%

CC1=C2CC(=O)OC(C)(C)[C@]23O[C@@H]3[C@@H]2O[C@@]3(O)[C@@H](C)O[C@H]4OC(=O)[C@]5(C)C[C@H]1[C@]2(C)[C@@]31C(=O)O[C@@]415
inhibition [1]: < 60% | inhibition [2]: < 60% | inhibition [3]: < 60% | inhibition [4]: < 60%

COC(=O)[C@]12C(=O)[C@@](C)(O)C(=O)[C@](C)(C[C@H]3C(C)=C4CC(=O)OC(C)(C)C4=CC[C@@]31C)[C@]21CO1
inhibition [1]: < 60% | inhibition [2]: < 60% | inhibition [3]: < 60% | inhibition [4]: < 60%

COC(=O)[C@]12[C@@H]3[C@H]4OC(=O)[C@]3(C)CC3=C(C)C5=C(C[C@H](O[C@]1(O)[C@H](C)O4)[C@@]32C)C(C)(C)OC(=O)C5
inhibition [1]: < 60% | inhibition [2]: < 60% | inhibition [3]: < 60% | inhibition [4]: < 60%

COC(=O)[C@]12C3=C(C)O[C@@H]4OC(=O)[C@](C)(C[C@H]5C(C)=C6CC(=O)O[C@@]6(C(C)(C)O)[C@@H](C[C@@]51C)O3)[C@@H]42
inhibition [1]: < 60% | inhibition [2]: < 60% | inhibition [3]: < 60% | inhibition [4]: < 60%

COC(=O)[C@]12C(=O)[C@H](C)O[C@@H]3OC(=O)[C@](C)(C[C@H]4C(C)=C5CC(=O)OC(C)(C)C5=CC[C@@]41C)[C@@H]32 [BERKELEYACETAL A]
inhibition [1]: < 60% | inhibition [2]: < 60% | inhibition [3]: < 60% | inhibition [4]: < 60%

COC(=O)CC1=C(C)[C@@H]2C[C@@]3(C)C(=O)O[C@H]4O[C@@H](C)[C@@]5(O)O[C@@H]([C@@H]6O[C@]16C(C)(C)O)[C@]2(C)[C@@]5(C(=O)OC)[C@H]43
inhibition [1]: < 60% | inhibition [2]: < 60% | inhibition [3]: < 60% | inhibition [4]: < 60%
